Experimental findings from ChEMBL document CHEMBL1201862, “PubChem BioAssay data set” (2004) are described below.

What all share (experiment): NCI anticancer screen, dose series, 48 h
For assay [1], the system named is ACHN.
For assay [2], the system named is RPMI-8226.
The test system of assay [3] is SN12C.
Assay [4] concerns Malme-3M.
Assay [5] has as its system NCI-H23.
Assay [6] deals with IGROV-1.
Assay [7] deals with HCT-116.
Assay [8] deals with CCRF-CEM.
Assay [9] deals with SF-268.
Assay [10] has as its system SK-MEL-2.
Assay [11] concerns K562.
Assay [12] concerns NCI/ADR-RES.
For assay [13], the system named is HOP-92.
Assay [14] deals with NCI-H460.
In assay [15] the test system is OVCAR-3.
Assay [16] has as its system KM12.
Assay [17] relates to CAKI-1.
Assay [18] relates to SR.
The test system of assay [19] is OVCAR-8.
Assay [20] relates to SF-539.

SMILES strings stand for the structures.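 Following 48 hours of exposure in 96-well plates, responses at five concentrations were used to interpolate endpoints linearly. GI50 marks 50% less growth.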 Active and inactive are the calls of the source. No stated cut-off is given here; in the data, active = GI50 up to about 1.1 µM and inactive = higher.

In the case of `O=C1Nc2ccccc2/C1=C/c1c(Cl)[nH]c2ccc(O)cc12`, the GI50 in assay [1] was 4.7 µM (inactive); in assay [2], 3.43 µM (inactive); in [3], 0.641 µM (active); in assay [4], 0.736 µM (active); in [5], 2.63 µM (inactive); in [6], 1.69 µM (inactive). Moreover, the GI50 in [7] is 0.719 µM (active); in assay [8] it was 1.4 µM (inactive); in assay [9] it was 3.77 µM (inactive); in [10] it was 1.55 µM (inactive); in assay [11] it was 0.649 µM (active); in [12], 0.944 µM (active). Besides, the GI50 in assay [13] is 5.69 µM (inactive); in assay [14], 3.61 µM (inactive); in [15], 1.77 µM (inactive); in assay [16] it was 1.37 µM (inactive); in [17], 3.74 µM (inactive); in assay [18] it was 0.177 µM (active). Further, the GI50 in [19] is 2.93 µM (inactive); in [20], 0.544 µM (active).

Turning to `Cc1ccc2c(O)cc(-c3ccc(C)s3)nc2n1`, the GI50 in assay [1] is 0.731 µM (active); in assay [2], 0.248 µM (active); in [3], 0.556 µM (active); in assay [4], 0.94 µM (active); in assay [5], 0.277 µM (active); in assay [6], 0.44 µM (active). For the same molecule, the GI50 in [7] was 0.295 µM (active); in assay [8] it was 0.276 µM (active); in assay [9], 2.34 µM (inactive); in assay [10] it was 59.3 µM (inactive); in assay [11], 0.423 µM (active); in assay [12] it was 0.129 µM (active). In addition, the GI50 was 5.21 µM (inactive) in [13]; 0.456 µM (active) in assay [14]; 0.34 µM (active) in assay [15]; 0.0912 µM (active) in assay [16]; 0.811 µM (active) in assay [17]; 0.0893 µM (active) in assay [18]. Also, the values for the GI50 in [19] and in assay [20] were 0.652 µM (active) and 0.325 µM (active), respectively.

Turning to `CN1CC2CN(Cc3ccccc3)CCN2c2cccnc21` (centres undefined), the GI50 in [1] is 45.2 µM (inactive); in [2], 27.5 µM (inactive); in [4], 47 µM (inactive); in assay [5] it was 39 µM (inactive); in assay [6], 52.7 µM (inactive); in assay [7], 10.6 µM (inactive). Further, the GI50 is 32.8 µM (inactive) in [8]; 54.3 µM (inactive) in assay [9]; 89.7 µM (inactive) in assay [10]; 29.2 µM (inactive) in [11]; 32.1 µM (inactive) in assay [12]; 47.4 µM (inactive) in assay [13]. For the same molecule, the GI50 in assay [14] was 39.1 µM (inactive); in assay [15], 41.1 µM (inactive); in [16], 23.9 µM (inactive); in [17], 93.1 µM (inactive); in assay [18] it was 25.8 µM (inactive); in [19], 48.2 µM (inactive). Further, in assay [20], the GI50 was 62.8 µM (inactive).

In the case of `C=C(C(=O)O[C@H]1C/C(C)=C/CC/C(CO)=C/[C@H]2C(=O)OC(=C)[C@H]12)C(O)CO` (some centres undefined), the GI50 is 12.3 µM (inactive) in assay [1]; 2 µM (inactive) in assay [2]; 15.3 µM (inactive) in assay [3]; 5.16 µM (inactive) in assay [4]; 16.3 µM (inactive) in assay [5]; 19.5 µM (inactive) in assay [6]. Moreover, the GI50 in assay [7] was 7.18 µM (inactive); in assay [8], 1.67 µM (inactive); in [9] it was 18.7 µM (inactive); in assay [10], 15.6 µM (inactive); in assay [11] it was 4.08 µM (inactive); in assay [12], 19.8 µM (inactive). Besides, the GI50 was 8.75 µM (inactive) in assay [13]; 17.2 µM (inactive) in [14]; 6.76 µM (inactive) in assay [15]; 20.4 µM (inactive) in assay [16]; 4.46 µM (inactive) in [17]; 2.5 µM (inactive) in assay [18]. Besides, the GI50 is 15.2 µM (inactive) in [19] and 4.71 µM (inactive) in [20].

For the molecule `COC(=O)/C=C/c1ccc2c(c1)[C@H](C(=O)OC)[C@@H](c1ccc(O)cc1)O2`, the GI50 in [1] is 42.6 µM (inactive); in assay [2], > 10 µM (inactive); in assay [3], 43.5 µM (inactive); in [4] it was 20.6 µM (inactive); in assay [5], 46.8 µM (inactive); in assay [6], 27.4 µM (inactive). For the same molecule, the GI50 is 38.5 µM (inactive) in assay [7]; 9.06 µM (inactive) in assay [8]; 30.3 µM (inactive) in assay [9]; 4.62 µM (inactive) in assay [10]; 4.06 µM (inactive) in assay [11]; 32.3 µM (inactive) in [12]. In addition, the GI50 in [13] is 59 µM (inactive); in assay [14] it was 35.1 µM (inactive); in assay [15], 8.91 µM (inactive); in assay [16], 19 µM (inactive); in [17], 45.3 µM (inactive); in assay [18], 6.62 µM (inactive). Further, the GI50 in assay [19] is 37 µM (inactive); in assay [20], 44.7 µM (inactive).

As for `OCC1OC(O[C@H]2CN3[C@H](O)[C@@H](O)[C@H](O)[C@H]3C2O)C(O)C(O)C1O` (some centres undefined), the GI50 in assay [1], in assay [2], in assay [3], in assay [4], in [5] and in assay [6] was > 100 µM (inactive) each time. In addition, the GI50 in [7], in assay [8], in assay [9], in [10], in [11] and in assay [12] was > 100 µM (inactive) in each case. Also, the GI50 in [13], in assay [14], in assay [15], in [16], in assay [17] and in assay [18] was > 100 µM (inactive) throughout. Besides, the GI50 in assay [19] and in [20] was > 100 µM (inactive) each time.

In the case of `FC(F)(F)c1nc2ccc(SSc3ccc4nc(C(F)(F)F)[nH]c4c3)cc2[nH]1`, the GI50 in [1] is 88.7 µM (inactive); in assay [2], 25.1 µM (inactive); in assay [3] it was 46.7 µM (inactive); in assay [4], > 10 µM (inactive); in assay [5], 47.5 µM (inactive); in assay [6], > 10 µM (inactive). The GI50 in assay [7] is > 10 µM (inactive); in assay [8] it was > 10 µM (inactive); in assay [9], > 10 µM (inactive); in [10], > 10 µM (inactive); in assay [11], 31.9 µM (inactive); in assay [12], > 10 µM (inactive). For the same molecule, the GI50 in assay [13] is > 10 µM (inactive); in assay [14] it was 24.5 µM (inactive); in [15] it was 36.6 µM (inactive); in [16] it was > 10 µM (inactive); in assay [17], > 10 µM (inactive); in assay [18], 30.7 µM (inactive). The GI50 in [19] is 92.3 µM (inactive); in [20], 41.8 µM (inactive).

On to `CC1CN=C(N(C(=O)Nc2ccc(Cl)cc2)c2cccc(Cl)c2)S1` (centres undefined), for which the GI50 was 10.8 µM (inactive) in assay [1]; > 10 µM (inactive) in assay [2]; 15.7 µM (inactive) in assay [3]; 59 µM (inactive) in assay [4]; 35.1 µM (inactive) in assay [5]; 24.4 µM (inactive) in assay [6]. For the same molecule, the GI50 was 20.4 µM (inactive) in [7]; 17.8 µM (inactive) in [8]; 54.2 µM (inactive) in assay [9]; 16.6 µM (inactive) in assay [10]; 7.06 µM (inactive) in [11]; 19.2 µM (inactive) in [12]. Also, the GI50 in [13] was 26.3 µM (inactive); in [14], 27.1 µM (inactive); in assay [15], 40.6 µM (inactive); in [16], 24.9 µM (inactive); in assay [17], 12.9 µM (inactive); in assay [18] it was 29.3 µM (inactive). For the same molecule, the values for the GI50 in assay [19] and in [20] were 36.9 µM (inactive) and 33.7 µM (inactive), respectively.

On to `C[N+]1(C)CCOC(O)(c2ccccc2)C1` (centres undefined), for which the GI50 in assay [1], in [2], in [3], in assay [4], in assay [5] and in [6] was > 100 µM (inactive) in each case. Moreover, the GI50 in [7], in assay [8], in assay [9], in assay [10], in assay [11] and in assay [12] was > 100 µM (inactive) throughout. Besides, the GI50 in [13], in assay [14], in assay [15], in [16], in [17] and in assay [18] was > 100 µM (inactive) each time. Further, the GI50 in [19] and in assay [20] was > 100 µM (inactive) each time.

As for `CCOC(=O)/C=C(/OCC)[C@@H]1C(C(=O)c2ccc(Cl)cc2)[C@H]1/C(=C\C(=O)OCC)OCC` (some centres undefined), the GI50 in assay [1] was > 100 µM (inactive); in assay [2] it was 5.35 µM (inactive); in assay [3], > 100 µM (inactive); in assay [4] it was > 100 µM (inactive); in [5] it was > 76.9 µM (inactive); in assay [6] it was > 100 µM (inactive). For the same molecule, the GI50 is 15.5 µM (inactive) in assay [7]; 57.4 µM (inactive) in assay [8]; > 100 µM (inactive) in assay [9]; > 100 µM (inactive) in [10]; 4.55 µM (inactive) in assay [11]; 29 µM (inactive) in [12]. Also, the GI50 was > 34.7 µM (inactive) in [13]; > 100 µM (inactive) in assay [14]; > 100 µM (inactive) in assay [15]; 56.9 µM (inactive) in assay [16]; > 100 µM (inactive) in assay [17]; 8.73 µM (inactive) in assay [18]. In addition, the GI50 in assay [19] and in assay [20] was > 100 µM (inactive) each time.
